The record followed here is patent US4863946A, “2-[2H-(1,3-dihydroisoindole)alkylene]-4,5-dihydroimidazoles and pharmaceutical compositions thereof” (Beecham Group plc, priority 1985, dated 1989).

Structures can show the parent of a compound that is named as a salt.

For orientation: Ki means a measure of affinity in units of concentration, obtained from inhibition or displacement.

The experiment has as its target T1, α2-Adrenoceptor (Homo sapiens, UniProt P08913).
T1 construct: from tissue; host or cells: human platelets (membranes)
T1 sequence (P08913 1-465): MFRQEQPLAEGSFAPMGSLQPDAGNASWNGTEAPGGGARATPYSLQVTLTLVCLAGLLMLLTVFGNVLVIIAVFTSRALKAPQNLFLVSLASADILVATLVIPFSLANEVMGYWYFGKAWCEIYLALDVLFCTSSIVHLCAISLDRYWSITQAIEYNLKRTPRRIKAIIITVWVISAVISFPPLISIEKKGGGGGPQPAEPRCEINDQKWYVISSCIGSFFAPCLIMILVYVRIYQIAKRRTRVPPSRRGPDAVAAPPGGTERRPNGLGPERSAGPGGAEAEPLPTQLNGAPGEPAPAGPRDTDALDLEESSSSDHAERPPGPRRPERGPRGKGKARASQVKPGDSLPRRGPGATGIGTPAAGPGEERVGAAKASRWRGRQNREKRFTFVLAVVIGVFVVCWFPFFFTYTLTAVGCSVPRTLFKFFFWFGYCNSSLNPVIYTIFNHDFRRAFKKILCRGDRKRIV
The experiment in a line: α2-Adrenoceptor Binding ([3H] Rauwolscine, human platelet membranes). The conditions noted are these: [3H] Rauwolscine 0.5-1.0 nM, 30 minutes at 30° C., read-out: Binding Affinity. Ki. How it is done: (A) α2-Adrenoceptor Binding
Human platelet membranes were incubated with [^3 H] Rauwolscine (0.5-1.0 nM) for 30 minutes at 30° C. with varying concentrates of the drug (0.1-10,000 nM). The binding assay was stopped by filtering and rinsing on GF/B glass fibre filters. Binding Affinity (Ki) was calculated using the Ching Prussoff equation.
`c1ccc2c(c1)CN(CC1=NCCN1)C2` [Example 1, 2-[2H-(1,3-Dihydroisoindole)methyl]-4,5-dihydroimidazole]: the Ki is 5 nM.
Regarding `Clc1cccc2c1CN(CC1=NCCN1)C2` [Example 2, 2-[2H-(4-Chloro-1,3-dihydroisoindole)methyl]-4,5-dihydroimidazole], the Ki was 7 nM.
As for `Clc1ccc2c(c1)CN(CC1=NCCN1)C2` [Example 3, 2-[2H-(5-Chloro-1,3-dihydroisoindole)methyl]-4,5-dihydroimidazole], the figure is 13 nM; as for `c1ccc2c(c1)CCN(CC1=NCCN1)C2` [Example 4, 2-[(1,2,3,4-Tetrahydroisoquinoline)methyl]-4,5-dihydroimidazole], 20 nM; as for `Fc1ccc2c(c1)CN(CC1=NCCN1)C2` [Example 5, 2-[2H-(5-Fluoro-1,3-dihydroisoindole)methyl]-4,5-dihydroimidazole], 164 nM.
The value for `COc1ccc2c(c1)CN(CC1=NCCN1)C2` [Example 6, 2-[2H-(5-Methoxy-1,3-dihydroisoindole)methyl]-4,5 dihydroimidazole dihydrochloride] was 89 nM; that for `Cc1ccc2c(c1)CN(CC1=NCCN1)C2` [Example 7, 2-[2H-(5-Methyl-1,3-dihydroisoindole)methyl]-4,5-dihydroimidazole] was 22 nM.
